Data reported in patent US20060009493A1, “Indolinone hydrazides as c-Met inhibitors” (Sugen, Inc., priority 2003, published 2006).

Target: T1, GST fusion protein containing the Met kinase domain (Homo sapiens, UniProt P08581)
T1 construct: Purified GST fusion protein containing the Met kinase domain, Sugen, Inc
Assay: MET Transphosphorylation Assay (ELISA, poly(Glu,Tyr) 4:1 substrate)
Format: biochemical
Conditions: met transphosphorylation of poly(glutamic acid:tyrosine 4:1) substrate; two values in a cell separated by '/'
Protocol: MET Transphosphorylation Assay
This assay is used to measure phosphotyrosine levels on a poly(glutamic acid:tyrosine (4:1)) substrate as a means for identifying agonists/antagonists of met transphosphorylation of the substrate.
• 1. […] PBS, Gibco Catalog # 450-1300EB • 4. 50 mM HEPES • 5. […] Purified GST fusion protein containing the Met kinase domain, Sugen, Inc. • 7. TBST Buffer. • 8. 10% aqueous (MilliQue H2O) DMSO. • 9. […] 2× Kinase Dilution Buffer: for 100 ml, mix 10 mL 1M HEPES at pH 7.5 with 0.4 mL 5% BSA/PBS, 0.2 mL 0.1 M sodium orthovanadate and 1 mL 5M sodium chloride in 88.4 mL dH2O. • 11. 4×ATP Reaction Mixture: for 10 mL, mix 0.4 mL 1 M manganese chloride and 0.02 mL 0.1 M ATP in […] dH2O. • 12. 4× Negative Controls Mixture: for 10 mL, mix 0.4 mL 1 M manganese chloride in 9.6 mL dH2O.
13. […] 500 mM EDTA. • 15. Antibody Dilution Buffer: for 100 mL, mix 10 mL 5% BSA/PBS, 0.5 mL 5% Carnation Instant Milk® in PBS and 0.1 mL 0.1 M sodium orthovanadate in 88.4 mL TBST. • 16. Rabbit polyclonal antophosphotyrosine antibody, Sugen, Inc. • 17. Goat anti-rabbit horseradish peroxidase conjugated antibody, Biosource, Inc. • 18. ABTS Solution: for 1 L, mix 19.21 g citric acid, 35.49 g Na2HPO4 and 500 mg ABTS with sufficient dH2O to make 1 L. • 19. ABTS/H2O2: mix 15 mL ABST solution with 2 μL H2O2 five minutes before use. • 20. 0.2 M HCl Procedure: • 1. Coat ELISA plates with 2 μg Poly(Glu-Tyr) in 100 μL PBS, store overnight at 4° C. • 2. Block plate with 150 μL of 5% BSA/PBS for 60 min. • 3. Wash plate twice with PBS, once with 50 mM Hepes buffer pH 7.4. • 4. Add 50 μl of the diluted kinase to all wells. (Purified kinase is diluted with Kinase Dilution Buffer. Final concentration should be 10 ng/well.) • 5. Add 25 μL of the test compound (in 4% DMSO) or DMSO alone (4% in dH2O) for controls to plate. • 6. Incubate the kinase/compound mixture for 15 minutes. • 7. Add 25 μL of 40 mM MnCl2 to the negative control wells. • 8. Add 25 μL ATP/MnCl2 mixture to the all other wells (except the negative controls). Incubate for 5 min. • 9. Add 25 μL 500 mM EDTA to stop reaction. • 10. Wash plate 3× with TBST. • 11. Add 100 μL rabbit polyclonal anti-Ptyr diluted 1:10,000 in Antibody Dilution Buffer to each well. Incubate, with shaking, at room temperature for one hour. • 12. Wash plate 3× with TBST. • 13. […] Add 100 μL per well and incubate at room temperature, with shaking, for one hour. • 14. Wash plate 1× with PBS. • 15. Add 100 μl of ABTS/H2O2 solution to each well. • 16. If necessary, stop the development reaction with the addition of […] of 0.2M HCl per well. • 17.

T1 sequence (P08581 1078-1345 limits assumed): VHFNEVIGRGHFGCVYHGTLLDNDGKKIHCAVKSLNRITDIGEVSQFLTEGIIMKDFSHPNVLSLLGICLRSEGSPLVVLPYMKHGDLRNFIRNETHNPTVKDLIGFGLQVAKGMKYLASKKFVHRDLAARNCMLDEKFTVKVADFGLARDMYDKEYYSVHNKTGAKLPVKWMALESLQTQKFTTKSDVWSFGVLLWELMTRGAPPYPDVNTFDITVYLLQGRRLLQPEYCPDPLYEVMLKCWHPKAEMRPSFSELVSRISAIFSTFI

| Compound | IC50 [nM] |
| --- | --- |
| CC(C(=O)N/N=C1\C(=O)Nc2ccccc21)c1ccc(O)c(Br)c1 (stereo not shown) [II-103, 2-(3-Bromo-4-hydroxy-phenyl)-propionic acid [(3Z)-2-oxo-1,2-dihydro-indol-3-ylidene]-hydrazide] | 180 |
| O=C(Cc1ccccc1)N/N=C1\C(=O)Nc2ccccc21 [II-3, Phenyl-acetic acid [(3Z)-2-oxo-1,2-dihydro-indol-3-ylidene]-hydrazide] | 6660 |
| O=C1Nc2ccccc2/C1=N/NC(=O)C(CO)c1ccccc1 (stereo not shown) [Example I-7, 3-Hydroxy-2-phenyl-propionic acid [(3Z)-2-oxo-1,2-dihydro-indol-3-ylidene]-hydrazide] | > 20000 |
| CC(C(=O)N/N=C1\C(=O)Nc2ccc(Br)cc21)c1ccc2c(c1)OCO2 (stereo not shown) [Example I-53, 2-Benzo[1,3]dioxol-5-yl-propionic acid [(3Z)-5-bromo-2-oxo-1,2-dihydro-indol-3-ylidene]-hydrazide] | 740 |
| COC(=O)c1cccc2c1/C(=N/NC(=O)Cc1ccc(O)cc1)C(=O)N2 [Example I-56, (3Z)-3-{[2-(4-Hydroxy-phenyl)-acetyl]-hydrazono}-2-oxo-2,3-dihydro-1H-indole-4-carboxylic acid methyl ester] | 540 |
| O=C(Cc1ccc(O)c(Cl)c1)N/N=C1\C(=O)Nc2ccc(C(=O)N3CCC(NC4CC4)CC3)c(Cl)c21 [Example I-38, (3-Chloro-4-hydroxy-phenyl)-acetic acid [(3Z)-4-chloro-5-(4-cyclopropylamino-piperidine-1-carbonyl)-2-oxo-1,2-dihydro-indol-3-ylidene]-hydrazide] | 26 |
| O=C(Cc1ccc(O)cc1)N/N=C1\C(=O)Nc2ccc(S(=O)(=O)NCCN3CCOCC3)cc21 [Example I-26, (3Z)-3-{[2-(4-Hydroxy-phenyl)-acetyl]-hydrazono}-2-oxo-2,3-dihydro-1H-indole-5-sulfonic acid (2-morpholin-4-yl-ethyl)-amide] | 78 |
| CC(C(=O)N/N=C1\C(=O)Nc2ccc(NC(=O)CN3CCOCC3)cc21)c1ccc(F)cc1 (stereo not shown) [Example I-54] | 5920 |
| CC(C(=O)N/N=C1\C(=O)Nc2ccc(C(=O)NCCN3CCOCC3)c(Cl)c21)c1ccc(F)cc1 (stereo not shown) [Example I-39, (3Z)-4-Chloro-3-{[2-(4-fluoro-phenyl)-propionyl]-hydrazono}-2-oxo-2,3-dihydro-1H-indole-5-carboxylic acid (2-morpholin-4-yl-ethyl)-amide] | 110 |
| O=C(Cc1ccc(O)cc1)N/N=C1\C(=O)Nc2ccc(OC(F)(F)F)cc21 [Example I-17, (4-Hydroxy-phenyl)-acetic acid [(3Z)-2-oxo-5-trifluoromethoxy-1,2-dihydro-indol-3-ylidene]-hydrazide] | 58 |
| CC(C(=O)N/N=C1\C(=O)Nc2ccc(C#CCN(C)C)cc21)c1ccc(F)cc1 (stereo not shown) [Example I-51, 2-(4-Fluoro-phenyl)-propionic acid [(3Z)-5-(3-dimethylamino-prop-1-ynyl)-2-oxo-1,2-dihydro-indol-3-ylidene]-hydrazide] | 5100 |
| CC(C)C(C(=O)N/N=C1\C(=O)Nc2c(Cl)ccc(Cl)c21)c1ccc(O)cc1 (stereo not shown) [II-69, 2-(4-Hydroxy-phenyl)-3-methyl-butyric acid [(3Z)-4,7-dichloro-2-oxo-1,2-dihydro-indol-3-ylidene)-hydrazide] | 170 |
| CSc1ccc(CC(=O)N/N=C2\C(=O)Nc3ccccc32)cc1 [Example I-19, (4-Methylsulfanyl-phenyl)-acetic acid [(3Z]-2-oxo-1,2-dihydro-indol-3-ylidene]-hydrazide] | > 20000 |
| O=C(CCc1ccccc1)N/N=C1\C(=O)Nc2c(Cl)ccc(Cl)c21 [II-84, 3-Phenyl-propionic acid [(3Z)-4,7-dichloro-2-oxo-1,2-dihydro-indol-3-ylidene]-hydrazide] | > 20000 |
| O=C(Cc1ccc(O)nc1)N/N=C1\C(=O)Nc2ccc(C(=O)N3CCC[C@@H]3CNC3CC3)c(Cl)c21 [Example I-45, (6-Hydroxy-pyridin-3-yl)-acetic acid [(3Z)-4-chloro-5-[(2R)-2-cyclopropylaminomethyl-pyrrolidine-1-carbonyl]-2-oxo-1,2-dihydro-indol-3-ylidene]-hydrazide] | 1300 |
| CN1CCN(S(=O)(=O)c2ccc3c(c2)/C(=N/NC(=O)Cc2ccc(O)cc2)C(=O)N3)CC1 [Example I-25, (4-Hydroxy-phenyl)-acetic acid [(3Z)-5-(4-methyl-piperazine-1-sulfonyl)-2-oxo-1,2-dihydro-indol-3-ylidene]-hydrazide] | 77 |
| O=C(CCc1ccc(O)cc1)N/N=C1\C(=O)Nc2c(Cl)ccc(Cl)c21 [II-76, 3-(4-Hydroxy-phenyl)-propionic acid [(3Z)-4,7-dichloro-2-oxo-1,2-dihydro-indol-3-ylidene]-hydrazide] | 46 |
| (3-Chloro-4-hydroxy-phenyl)-acetic acid [(3Z)-4,7-dimethyl-2-oxo-1,2-dihydro-indol-3-ylidene]-hydrazide [II-48] | 20 |
| O=C(Cc1ccc2c(c1)OCO2)N/N=C1\C(=O)Nc2ccc(Br)cc21 [Example I-22, Benzo[1,3]dioxol-5-yl-acetic acid [(3Z)-5-bromo-2-oxo-1,2-dihydro-indol-3-ylidene]-hydrazide] | 250 |
| O=C(Cc1cccc(O)c1)N/N=C1\C(=O)Nc2ccccc21 [II-30, (3-Hydroxy-phenyl)-acetic acid [(3Z)-2-oxo-1,2-dihydro-indol-3-ylidene]-hydrazide] | 1450 |
| Cc1ccc(C)c2c1NC(=O)/C2=N\NC(=O)Cc1ccc(O)c(C#N)c1 [II-112, (3-Cyano-4-hydroxy-phenyl)-acetic acid [(3Z)-4,7-dimethyl-2-oxo-1,2-dihydro-indol-3-ylidene]-hydrazide] | 2500 |
| O=C(Cc1ccc(O)cc1)N/N=C1\C(=O)Nc2c(C(=O)O)cccc21 [Example I-47, (3Z)-3-{[2-(4-Hydroxy-phenyl)-acetyl]-hydrazono}-2-oxo-2,3-dihydro-1H-indole-7-carboxylic acid] | 14600 |
| CC(C(=O)N/N=C1\C(=O)Nc2ccc(C(=O)N3CCC(NC4CC4)CC3)c(Cl)c21)c1ccc(O)cc1 (stereo not shown) [Example I-33, 2-(4-Hydroxy-phenyl)-propionic acid [(3Z)-4-chloro-5-(4-cyclopropylamino-piperidine-1-carbonyl)-2-oxo-1,2-dihydro-indol-3-ylidene]-hydrazide] | 86 |
| O=C(Cc1ccc2c(c1)OCO2)N/N=C1\C(=O)Nc2ccc(S(=O)(=O)NCCN3CCOCC3)cc21 [Example I-31, (3Z)-3-[(2-Benzo[1,3]dioxol-5-yl-acetyl)-hydrazono]-2-oxo-2,3-dihydro-1H-indole-5-sulfonic acid (2-morpholin-4-yl-ethyl)-amide] | 320 |
| O=C(Cc1cc(=O)[nH]cn1)N/N=C1\C(=O)Nc2ccccc21 [II-88, (6-Oxo-1,6-dihydro-pyrimidin-4-yl)-acetic acid [(3Z)-2-oxo-1,2-dihydro-indol-3-ylidene]-hydrazide] | 5990 |
| O=C(Cc1ccc(O)c(Br)c1)N/N=C1\C(=O)Nc2c(Cl)ccc(Cl)c21 [II-102, (3-Bromo-4-hydroxy-phenyl)-acetic acid [(3Z)-4,7-dichloro-2-oxo-1,2-dihydro-indol-3-ylidene]-hydrazide] | 190 |
| O=C(Cc1ccc2c(c1)OCO2)N/N=C1\C(=O)Nc2c(Cl)ccc(Cl)c21 [Example I-24, Benzo[1,3]dioxol-5-yl-acetic acid [(3Z)-4,7-dichloro-2-oxo-1,2-dihydro-indol-3-ylidene]-hydrazide] | 110 |
| Cc1ccc(C)c2c1NC(=O)/C2=N\NC(=O)Cc1ccc(O)nc1 [II-50, (6-Hydroxy-pyridin-3-yl)-acetic acid [(3Z)-4,7-dimethyl-2-oxo-1,2-dihydro-indol-3-ylidene]-hydrazide] | 37 |
